Measurements published in patent publication US7138361B2, “Herbicidal heterocycles” (E. I. du Pont de Nemours and Company, priority 2000, dated 2006).

Key:
Type in all cases: in vivo
[1] = test system: smallflower flatsedge (Cyperus difformis); experiment: Test C flooded paddy test; conditions: for Flatsedge plant response rating: Flooded Paddy, scale 0 to 100, 0 no effect, 100 complete control; for Plant response rating, Flatsedge: flooded paddy test, scale 0 to 100 (0 no effect, 100 complete control)
Summary of the method: (§1)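 Response on a 0-to-100 scale (no effect to complete control) was assessed by eye versus controls. Plants had reached 2 leaves when treated in flooded paddy conditions. The assessment took place after 12–14 days of greenhouse growth.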

[2] = test system: barnyardgrass (Echinochloa crus-galli); experiment: Test C flooded paddy test; conditions: for Barnyardgrass plant response rating: Flooded Paddy, scale 0 to 100, 0 no effect, 100 complete control; for Plant response rating, Barnyardgrass: flooded paddy test, scale 0 to 100 (0 no effect, 100 complete control)
Summary of the method: as §1

[3] = test system: duck salad (Heteranthera limosa); experiment: Test C flooded paddy test; conditions: for Ducksalad plant response rating: Flooded Paddy, scale 0 to 100, 0 no effect, 100 complete control; for Plant response rating, Ducksalad: flooded paddy test, scale 0 to 100 (0 no effect, 100 complete control)
Summary of the method: as §1

[4] = test system: rice (Oryza saliva); experiment: Test C flooded paddy test; conditions: for Rice plant response rating: Flooded Paddy, scale 0 to 100, 0 no effect, 100 complete control; for Plant response rating, Rice: flooded paddy test, scale 0 to 100 (0 no effect, 100 complete control)
Summary of the method: as §1

[5] = test system: barnyardgrass (Echinochloa crus-galli); experiment: Test B postemergence; conditions: 13 to 15 days
Summary of the method: (§2)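 Ratings on a 0 to 100 visual scale (100 complete control) compare treated plants with controls 13 to 15 days after application. Treatments were pre- or postemergence sprays of compound in non-phytotoxic solvent with surfactant.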

[6] = test system: cocklebur (Xanthium strumarium); experiment: Test B postemergence; conditions: 13 to 15 days
Summary of the method: as §2

[7] = test system: velvetleaf (Abutilon theophrasti); experiment: Test B postemergence; conditions: Rate 500 g/ha, scale 0 to 100, 0 is no effect, 100 is complete control, 13 to 15 days
Summary of the method: as §2

[8] = test system: Surinam grass (Brachiaria decumbens); experiment: Test B postemergence; conditions: 13 to 15 days
Summary of the method: as §2

[9] = test system: corn (Zea mays); experiment: Test B postemergence; conditions: 13 to 15 days
Summary of the method: as §2

[10] = test system: morning glory (Ipomoea hederacea); experiment: Test B postemergence; conditions: Rate 500 g/ha, scale 0 to 100, 0 is no effect, 100 is complete control, 13 to 15 days
Summary of the method: as §2

[11] = test system: crabgrass (Digitaria sanguinalis); experiment: Test B postemergence; conditions: 13 to 15 days
Summary of the method: as §2

[12] = test system: wild oat (Avena fatua); experiment: Test B postemergence; conditions: Rate 500 g/ha, scale 0 to 100, 0 is no effect, 100 is complete control, 13 to 15 days
Summary of the method: as §2

[13] = test system: giant foxtail (Setaria faberii); experiment: Test B postemergence; conditions: 13 to 15 days
Summary of the method: as §2

[14] = test system: lambsquarters (Chenopodium album); experiment: Test B postemergence; conditions: Rate 500 g/ha, scale 0 to 100, 0 is no effect, 100 is complete control, 13 to 15 days
Summary of the method: as §2

[15] = test system: pigweed (Amaranthus retroflexus); experiment: Test B postemergence; conditions: Rate 500 g/ha, scale 0 to 100, 0 is no effect, 100 is complete control, 13 to 15 days
Summary of the method: as §2

[16] = test system: blackgrass (Alopecurus myosuroides); experiment: Test B postemergence; conditions: 13 to 15 days
Summary of the method: as §2

[17] = test system: wheat (Triticum aestivum); experiment: Test B postemergence; conditions: Rate 500 g/ha, scale 0 to 100, 0 is no effect, 100 is complete control, 13 to 15 days
Summary of the method: as §2

[18] = test system: barnyardgrass (Echinochloa crus-galli); experiment: Test B preemergence
Summary of the method: as §2

[19] = test system: cocklebur (Xanthium strumarium); experiment: Test B preemergence
Summary of the method: as §2

[20] = test system: velvetleaf (Abutilon theophrasti); experiment: Test B preemergence
Summary of the method: as §2

[21] = test system: Surinam grass (Brachiaria decumbens); experiment: Test B preemergence
Summary of the method: as §2

[22] = test system: corn (Zea mays); experiment: Test B preemergence
Summary of the method: as §2

[23] = test system: morning glory (Ipomoea hederacea); experiment: Test B preemergence
Summary of the method: as §2

[24] = test system: crabgrass (Digitaria sanguinalis); experiment: Test B preemergence
Summary of the method: as §2

[25] = test system: giant foxtail (Setaria faberii); experiment: Test B preemergence
Summary of the method: as §2

[26] = test system: lambsquarters (Chenopodium album); experiment: Test B preemergence
Summary of the method: as §2

[27] = test system: pigweed (Amaranthus retroflexus); experiment: Test B preemergence
Summary of the method: as §2

[28] = test system: rice (Oryza saliva); experiment: Test B preemergence
Summary of the method: as §2

[29] = Rate 125 g/ha, scale 0 (no effect) to 100 (complete control)
[30] = Rate 500 g/ha, scale 0 to 100, 0 is no effect, 100 is complete control
[31] = Preemergence, Rate 500 g/ha, scale 0 to 100, 0 no effect, 100 complete control
[32] = preemergence, Rate 125 g/ha, scale of 0 to 100 where 0 is no effect and 100 is complete control, 13 to 15 days

Cc1ccc(N2CCC(n3ccc(C(C)(C)C)n3)C2=O)cc1OC(C)C (stereo not shown) [Compound 110]
30: Plant response rating, Rice ([4]; Rate 125 g/ha) | Plant response rating, Cocklebur [6, 29] | Plant response rating, Cocklebur [6, 30] | Plant response rating, Barnyardgrass [18, 32]
100: Flatsedge plant response rating ([1]; Rate 250 g/ha) | Flatsedge plant response rating ([1]; Rate 500 g/ha) | Plant response rating, Crabgrass [24, 31] | Plant response rating, Crabgrass [24, 32] | Plant response rating, Lambsquarters [26, 31] | Plant response rating, Pigweed [27, 31] | Plant response rating, Pigweed [27, 32]
50: Plant response rating, Flatsedge ([1]; Rate 62 g/ha) | Plant response rating, Flatsedge ([1]; Rate 125 g/ha) | Plant response rating, Foxtail, Giant [25, 31]
40: Plant response rating, Surinam grass [21, 31]
70: Barnyardgrass plant response rating ([2]; Rate 250 g/ha) | Ducksalad plant response rating ([3]; Rate 250 g/ha) | Ducksalad plant response rating ([3]; Rate 500 g/ha) | Rice plant response rating ([4]; Rate 250 g/ha) | Plant response rating, Velvetleaf [7] | Plant response rating, Pigweed [15] | Plant response rating, Cocklebur [19, 31]
80: Barnyardgrass plant response rating ([2]; Rate 500 g/ha) | Rice plant response rating ([4]; Rate 500 g/ha) | Plant response rating, Velvetleaf [20, 31]
0: Plant response rating, Barnyardgrass ([2]; Rate 62 g/ha) | Plant response rating, Barnyardgrass ([2]; Rate 125 g/ha) | Plant response rating, Rice ([4]; Rate 62 g/ha) | Plant response rating, Barnyardgrass [5, 29] | Plant response rating, Barnyardgrass [5, 30] | Plant response rating, Surinam grass [8, 29] | Plant response rating, Surinam grass [8, 30] | Plant response rating, Corn [9, 29] | Plant response rating, Corn [9, 30] | Plant response rating, Crabgrass [11, 29] | Plant response rating, Crabgrass [11, 30] | Plant response rating, Wild Oat [12] | Plant response rating, Foxtail, Giant [13, 29] | Plant response rating, Foxtail, Giant [13, 30] | Plant response rating, Blackgrass [16, 29] | Plant response rating, Blackgrass [16, 30] | Plant response rating, Wheat [17] | Plant response rating, Barnyardgrass [18, 31] | Plant response rating, Cocklebur [19, 32] | Plant response rating, Velvetleaf [20, 32] | Plant response rating, Surinam grass [21, 32] | Plant response rating, Corn [22, 31] | Plant response rating, Corn [22, 32] | Plant response rating, Morningglory [23, 31] | Plant response rating, Morningglory [23, 32] | Plant response rating, Foxtail, Giant [25, 32] | Plant response rating, Lambsquarters [26, 32] | Plant response rating, Rice [28, 31] | Plant response rating, Rice [28, 32]
20: Plant response rating, Ducksalad ([3]; Rate 125 g/ha)
90: Plant response rating, Lambsquarters [14]
10: Plant response rating, Ducksalad ([3]; Rate 62 g/ha)
60: Plant response rating, Morningglory [10]
